Data reported in US10000525B2, “Non-hormonal steroid modulators of NF-κB for treatment of disease” (ReveraGen Biopharma, Inc, priority 2010, dated 2018).

Tests used:
[1] = tested on: mdx mice; test: In vivo mdx mouse model of dystrophy: body weight and muscle mass; conditions: 5 mg/kg/day per oral in feed, at 33.8 weeks age
Experimental: (§1) Separate groups (n=12-14) of mdx mice were treated with prednisolone (5 mg/kg/day; per oral in feed), Example 1 (20 and 40 mg/kg/day; per oral in feed) and Example 2 (20 and 40 mg/kg/day; per oral in feed) for 3 months. All mice underwent 30 min biweekly treadmill exercise during the treatment duration to unmask the mild disease phenotype of mdx mouse model.

[2] = tested on: mdx mice; test: mdx mouse model: histological evaluation (H&E) of gastrocnemius muscle; assay type: in vivo; conditions: for degeneration of skeletal muscle (H&E) / inflammation of skeletal muscle (H&E) / regenerating muscle fibers (H&E): 20 and 40 mg/kg/day per oral in feed, 3 months, in comparison to untreated and prednisolone treated mdx mice
Experimental: as §1
Hematoxylin and Eosin staining of gastrocnemius muscle of untreated mdx mice show significant degeneration and inflammation. […] Continuous administration of prednisolone appeared to increase degeneration and decrease in regeneration of dystrophic skeletal muscle.

[3] = tested on: extensor digitorum longus (EDL) muscle; test: mdx mouse model: in vitro force contractions of EDL muscle; assay type: in vivo; conditions: mdx mice, prednisolone 5 mg/kg/day per oral in feed, 3 months
Experimental: as §1
The distal tendon of the extensor digitorum longus (EDL) muscle was tied securely to the lever arm of a servomotor/force transducer (model 305B, Aurora Scientific, Richmond Hill, ON, Canada) and the proximal tendon to a tissue clamp. Muscles were stimulated between two platinum electrodes. […] With the muscle held at Lo using stimulation frequencies of 30, 50, 80, 100, 120 and 150 Hz, the maximum isometric tetanic force (Po) developed during a 300 ms train of stimulation pulses was recorded for the EDL muscle. The muscle length was then measured with calipers and after removal of the muscle from the bath the mass of the muscle was determined. For each muscle, the optimum fiber length (Lf) was calculated by multiplying Lo by a previously determined Lf/Lo ratio of 0.45. […]

[4] = continuous administration, 5 mg/kg/day per oral in feed

C[C@]12C=CC(=O)C=C1CC[C@@H]1[C@@H]2[C@@H](O)C[C@@]2(C)[C@H]1CC[C@]2(O)C(=O)CO [Prednisolone, reference compound]
body weight versus untreated mice [1]: significantly lower body weight | degeneration of dystrophic skeletal muscle (H&E) [2, 4]: increase | regeneration of dystrophic skeletal muscle (H&E) [2, 4]: decrease | specific force of EDL muscle, versus untreated group [3]: no statistically significant (P<0.05) difference

C[C@]12CCC(=O)C=C1CCC1C2=CC[C@@]2(C)C1CC[C@]2(O)C(=O)CO (stereo partly drawn) [Example 1, (10S,13S,17R)-17-hydroxy-17-(2-hydroxyacetyl)-10,13-dimethyl-6,7,8,10,12,13,14,15,16,17-decahydro-1H-cyclopenta[a]phenanthren-3(2H)-one]
degeneration of skeletal muscle (H&E) [2]: significant decrease | inflammation of skeletal muscle (H&E) [2]: significant decrease | regenerating muscle fibers (H&E) [2]: increase

C[C@]12C=CC(=O)C=C1CCC1C2=CC[C@@]2(C)C1CC[C@]2(O)C(=O)CO (stereo partly drawn) [Example 2, (10S,13S,17R)-17-hydroxy-17-(2-hydroxyacetyl)-10,13-dimethyl-6,7,8,10,12,13,14,15,16,17-decahydro-3H-cyclopenta[a]phenanthren-3-one]
degeneration of skeletal muscle (H&E) [2]: significant decrease | inflammation of skeletal muscle (H&E) [2]: significant decrease | regenerating muscle fibers (H&E) [2]: increase
